Test results: patent US12162890B2 (Novartis AG, priority 2015, dated 2024)

Each compound was assayed against HEK293 cells with stable expression of the GRIN1 gene and tetracycline-inducible expression of the GRIN2B gene (NMDA receptor, NR2B) (Homo sapiens, UniProt Q13224) (assay: Fluo-8 Ca2+ flux assay: reversal of Ro 25-6981-mediated suppression of the Ca2+ response to co-agonist (glutamate/glycine)). Conditions: reversal of the Ro 25-6981 suppression of the Ca2+ response to co-agonist (glutamate/glycine).
Type: cell-based
Note: test concentration or dose not given here.

HEK293 cells with stable expression of the GRIN1 gene and tetracycline-inducible expression of the GRIN2B gene (NMDA receptor, NR2B), sequence (Q13224 27-1484, other chains not shown): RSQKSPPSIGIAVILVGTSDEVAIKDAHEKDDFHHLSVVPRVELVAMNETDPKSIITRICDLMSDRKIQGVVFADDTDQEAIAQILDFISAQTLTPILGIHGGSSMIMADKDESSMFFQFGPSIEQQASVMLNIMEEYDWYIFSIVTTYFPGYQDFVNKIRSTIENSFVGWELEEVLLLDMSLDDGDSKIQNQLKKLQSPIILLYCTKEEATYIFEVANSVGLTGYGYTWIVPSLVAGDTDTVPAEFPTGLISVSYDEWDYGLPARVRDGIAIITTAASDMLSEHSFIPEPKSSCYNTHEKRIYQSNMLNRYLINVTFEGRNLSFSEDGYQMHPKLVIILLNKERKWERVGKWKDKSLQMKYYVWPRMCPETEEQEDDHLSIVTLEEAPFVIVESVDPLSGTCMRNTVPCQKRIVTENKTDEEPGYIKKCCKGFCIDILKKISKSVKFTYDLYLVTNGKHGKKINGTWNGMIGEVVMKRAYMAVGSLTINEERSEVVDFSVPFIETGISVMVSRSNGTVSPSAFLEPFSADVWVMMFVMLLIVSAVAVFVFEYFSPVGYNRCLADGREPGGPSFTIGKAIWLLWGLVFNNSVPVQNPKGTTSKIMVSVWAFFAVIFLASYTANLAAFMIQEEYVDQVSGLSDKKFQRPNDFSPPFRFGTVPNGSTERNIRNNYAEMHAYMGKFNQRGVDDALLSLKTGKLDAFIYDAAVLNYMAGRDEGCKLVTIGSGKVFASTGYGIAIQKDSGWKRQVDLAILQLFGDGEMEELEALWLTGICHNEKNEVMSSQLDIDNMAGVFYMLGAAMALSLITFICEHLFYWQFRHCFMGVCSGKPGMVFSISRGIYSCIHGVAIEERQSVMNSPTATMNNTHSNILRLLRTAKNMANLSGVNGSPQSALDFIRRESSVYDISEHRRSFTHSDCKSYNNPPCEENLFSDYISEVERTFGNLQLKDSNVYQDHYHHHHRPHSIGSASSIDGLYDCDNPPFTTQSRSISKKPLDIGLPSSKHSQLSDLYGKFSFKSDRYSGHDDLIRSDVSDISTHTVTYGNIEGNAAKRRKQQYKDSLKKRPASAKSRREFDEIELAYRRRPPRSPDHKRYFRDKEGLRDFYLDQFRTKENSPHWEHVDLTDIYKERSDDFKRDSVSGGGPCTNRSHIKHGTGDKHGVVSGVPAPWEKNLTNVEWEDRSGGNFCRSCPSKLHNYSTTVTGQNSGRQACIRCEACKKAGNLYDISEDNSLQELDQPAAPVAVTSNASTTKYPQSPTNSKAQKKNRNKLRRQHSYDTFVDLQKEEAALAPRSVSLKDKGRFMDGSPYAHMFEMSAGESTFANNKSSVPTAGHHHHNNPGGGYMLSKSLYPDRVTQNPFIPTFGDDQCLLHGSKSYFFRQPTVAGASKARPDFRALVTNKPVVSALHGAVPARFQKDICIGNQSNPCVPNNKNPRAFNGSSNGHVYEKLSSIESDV

| Response Recovered (%) | Structure (SMILES) |
| --- | --- |
| 11 | COC1(C)CN(C(=O)Cn2ccc3scc(-c4ccc(F)c(Cl)c4)c3c2=O)C1 [Example 62, 3-(3-chloro-4-fluorophenyl)-5-(2-(3-methoxy-3-methylazetidin-1-yl)-2-oxoethyl)thieno[3,2-c]pyridin-4(5H)-one] |
| 32 | O=C(Cn1cc(-c2ccncc2)c2scc(-c3ccc(Cl)c(C(F)(F)F)c3)c2c1=O)N1CCCC1 [Example 103, 3-(4-chloro-3-(trifluoromethyl)phenyl)-5-(2-oxo-2-(pyrrolidin-1-yl)ethyl)-7-(pyridin-4-yl)thieno[3,2-c]pyridin-4(5H)-one] |
| 59 | Cc1cn(CC(=O)N2CCC(F)C2)c(=O)c2c(-c3ccc(F)c(C(F)(F)F)c3)ccn12 (centres unmarked) [Example 411, 8-(4-fluoro-3-(trifluoromethyl)phenyl)-2-(2-(3-fluoropyrrolidin-1-yl)-2-oxoethyl)-4-methylpyrrolo[1,2-a]pyrazin-1(2H)-one] |
| 5.2 | Cn1cc(-n2cc(-c3ccc(Cl)c(Cl)c3)c3c(=O)n(CC(=O)N4CC(C)(F)C4)ccc32)cn1 [Example 284, 3-(3,4-dichlorophenyl)-5-(2-(3-fluoro-3-methylazetidin-1-yl)-2-oxoethyl)-1-(1-methyl-1H-pyrazol-4-yl)-1H-pyrrolo[3,2-c]pyridin-4(5H)-one] |
| 36 | O=C(Cn1cnc2[nH]cc(-c3ccc(F)c(Cl)c3)c2c1=O)N1CCCC1 [Example 156, 5-(3-chloro-4-fluorophenyl)-3-(2-oxo-2-(pyrrolidin-1-yl)ethyl)-3H-pyrrolo[2,3-d]pyrimidin-4(7H)-one] |
| 16 | Cc1cc(-c2csc3ccn(CC(=O)N4CC(F)(CF)C4)c(=O)c23)cnc1F [Example 89, 5-(2-(3-fluoro-3-(fluoromethyl)azetidin-1-yl)-2-oxoethyl)-3-(6-fluoro-5-methylpyridin-3-yl)thieno[3,2-c]pyridin-4(5H)-one] |
| 35 | O=C(Cn1cnc2csc(-c3ccc(Cl)c(F)c3)c2c1=O)N1CCC(F)C1 (centres unmarked) [Example 364, 5-(4-chloro-3-fluorophenyl)-3-(2-(3-fluoropyrrolidin-1-yl)-2-oxoethyl)thieno[3,4-d]pyrimidin-4(3H)-one] |
| 96 | O=C(Cn1ccc2c(c(-c3ccc(F)c(C(F)(F)F)c3)cn2-c2ncccn2)c1=O)N1CCC(F)C1 (centres unmarked) [Example 243, 3-(4-fluoro-3-(trifluoromethyl)phenyl)-5-(2-(3-fluoropyrrolidin-1-yl)-2-oxoethyl)-1-(pyrimidin-2-yl)-1H-pyrrolo[3,2-c]pyridin-4(5H)-one] |
| 120 | Cc1cc(-c2cn(C3CC3)c3ccn(CC(=O)N4CC(C)(F)C4)c(=O)c23)ccc1F [Example 290, 1-cyclopropyl-5-(2-(3-fluoro-3-methylazetidin-1-yl)-2-oxoethyl)-3-(4-fluoro-3-methylphenyl)-1H-pyrrolo[3,2-c]pyridin-4(5H)-one] |
| 94 | O=C(Cn1ccc2scc(-c3ccc(F)c(C(F)(F)F)c3)c2c1=O)N1C[C@@H](F)[C@@H](F)C1 [Example 28, 5-(2-((3S,4R)-3,4-difluoropyrrolidin-1-yl)-2-oxoethyl)-3-(4-fluoro-3-(trifluoromethyl)phen-nyl)thieno[3,2-c]pyridin-4(5H)-one] |
| 7 | O=C(Cn1cnc2c(c(-c3ccc(Cl)c(F)c3)cn2CCO)c1=O)N1CCCC1 [Example 197] |
| 83 | O=C(Cn1ccc2c(c(-c3ccc(F)c(C(F)(F)F)c3)cn2-c2ccccn2)c1=O)N1CCC(F)C1 (centres unmarked) [Example 225, 3-(4-fluoro-3-(trifluoromethyl)phenyl)-5-(2-(3-fluoropyrrolidin-1-yl)-2-oxoethyl)-1-(pyridin-2-yl)-1H-pyrrolo[3,2-c]pyridin-4(5H)-one] |
| 58 | O=C(Cn1cnc2[nH]cc(-c3ccc(F)c(Cl)c3)c2c1=O)N1CC(F)(F)C1 [Example 161, 5-(3-chloro-4-fluorophenyl)-3-(2-(3,3-difluoroazetidin-1-yl)-2-oxoethyl)-3H-pyrrolo[2,3-d]pyrimidin-4(7H)-onepyrrolo[2,3-d]pyrimidin-4(7H)-one] |
| 160 | CC1(F)CN(C(=O)Cn2ccn3ccc(-c4ccc(F)c(C(F)(F)F)c4)c3c2=O)C1 [Example 401, 8-(4-fluoro-3-(trifluoromethyl)phenyl)-2-(2-(3-fluoro-3-methylazetidin-1-yl)-2-oxoethyl)pyrrolo[1,2-a]pyrazin-1(2H)-one] |
| 34 | N#Cc1cn(CC(=O)N2CCCC2)c(=O)c2c(-c3ccc(F)c(C(F)(F)F)c3)csc12 [Example 100, 3-(4-fluoro-3-(trifluoromethyl)phenyl)-4-oxo-5-(2-oxo-2-(pyrrolidin-1-yl)ethyl)-4,5-dihydrothieno[3,2-c]pyridine-7-carbonitrile] |
| 13 | O=C(Cn1ccc2scc(-c3ccc(Cl)c(Cl)c3)c2c1=O)N1CC2(COC2)C1 [Example 68, 3-(3,4-dichlorophenyl)-5-(2-oxo-2-(2-oxa-6-azaspiro[3.3]heptan-6-yl)ethyl)thieno[3,2-c]pyridin-4(5H)-one] |
| 41 | O=C(Cn1ccc2scc(-c3ccc(Cl)c(F)c3)c2c1=O)N1CC(F)(F)C1 [Example 6, 3-(4-chloro-3-fluorophenyl)-5-(2-(3,3-difluoroazetidin-1-yl)-2-oxoethyl)thieno[3,2-c]pyridin-4(5H)-one] |
| 77 | O=C(Cn1ccc2scc(-c3ccc(F)c(Cl)c3)c2c1=O)N1CC[C@@H](F)C1 [Example 41, (R)-3-(3-chloro-4-fluorophenyl)-5-(2-(3-fluoropyrrolidin-1-yl)-2-oxoethyl)thieno[3,2-c]pyridin-4(5H)-one] |
| 6 | O=C(Cn1cnc2snc(-c3ccc(Cl)cc3)c2c1=O)N1CCCC1 [Example 380, 3-(4-chlorophenyl)-5-(2-oxo-2-(pyrrolidin-1-yl)ethyl)isothiazolo[5,4-d]pyrimidin-4(5H)-one] |
| 3.1 | CC1(F)CN(C(=O)Cn2ccc3scc(-c4cnc(Cl)nc4)c3c2=O)C1 [Example 140, 3-(2-chloropyrimidin-5-yl)-5-(2-(3-fluoro-3-methylazetidin-1-yl)-2-oxoethyl)thieno[3,2-c]pyridin-4(5H)-one] |
| 2 | O=C(Cn1cnc2snc(-c3ccc(Cl)cc3)c2c1=O)N1CC(F)(F)C1 [Example 381, 3-(4-chlorophenyl)-5-(2-(3,3-difluoroazetidin-1-yl)-2-oxoethyl)isothiazolo[5,4-d]pyrimidin-4(5H)-one] |
| 79 | CCC1(F)CN(C(=O)Cn2ccc3c(c(-c4ccc(F)c(Cl)c4)cn3C3CC3)c2=O)C1 [Example 237, 3-(3-chloro-4-fluorophenyl)-1-cyclopropyl-5-(2-(3-ethyl-3-fluoroazetidin-1-yl)-2-oxoethyl)-1H-pyrrolo[3,2-c]pyridin-4(5H)-one] |
| 16 | COC1(C)CN(C(=O)Cn2ccc3scc(-c4ccc(Cl)c(Cl)c4)c3c2=O)C1 [Example 63, 3-(3,4-dichlorophenyl)-5-(2-(3-methoxy-3-methylazetidin-1-yl)-2-oxoethyl)thieno[3,2-c]pyridin-4(5H)-one] |
| 34 | O=C(Cn1ccc2scc(-c3ccc(Cl)c(F)c3)c2c1=O)N1CCCC1 [Example 2, 3-(4-chloro-3-fluorophenyl)-5-(2-oxo-2-(pyrrolidin-1-yl)ethyl)thieno[3,2-c]pyridin-4(5H)-one] |
| 8 | O=C(Cn1cnc2occ(-c3ccc(Cl)cc3)c2c1=O)N1CCCC1 [Example 388, 5-(4-chlorophenyl)-3-(2-oxo-2-(pyrrolidin-1-yl)ethyl)furo[2,3-d]pyrimidin-4(3H)-one] |
| 71 | O=C(Cn1ccc2[nH]cc(-c3ccc(F)c(Cl)c3)c2c1=O)N1CC(F)(F)C1 [Example 218, 3-(3-chloro-4-fluorophenyl)-5-(2-(3,3-difluoroazetidin-1-yl)-2-oxoethyl)-1H-pyrrolo[3,2-c]pyridin-4(5H)-one] |
| 40 | O=C(Cn1ccn2c(C3CC3)nc(-c3ccc(F)c(C(F)(F)F)c3)c2c1=O)N1CCC(F)C1 (centres unmarked) [Example 434, 3-cyclopropyl-1-(4-fluoro-3-(trifluoromethyl)phenyl)-7-(2-(3-fluoropyrrolidin-1-yl)-2-oxoethyl)imidazo[1,5-a]pyrazin-8(7H)-one] |
| 12 | O=C(Cn1cnc2csc(-c3ccc(C(F)(F)F)cc3)c2c1=O)N1CC(F)(F)C1 [Example 358, 3-(2-(3,3-difluoroazetidin-1-yl)-2-oxoethyl)-5-(4-(trifluoromethyl)phenyl)thieno[3,4-d]pyrimidin-4(3H)-one] |

| Structure (SMILES) | Response Recovered (%) |
| --- | --- |
| O=C(Cn1ccc2c(c(-c3ccc(F)c(C(F)(F)F)c3)cn2-c2ccccc2)c1=O)N1CCC(F)C1 (centres unmarked) [Example 230, 3-(4-fluoro-3-(trifluoromethyl)phenyl)-5-(2-(3-fluoropyrrolidin-1-yl)-2-oxoethyl)-1-phenyl-1H-pyrrolo[3,2-c]pyridin-4(5H)-one] | 109 |
| O=C(Cn1cnc2occ(-c3ccc(Cl)cc3)c2c1=O)N1CCC(C(F)(F)F)C1 (centres unmarked) [Example 387, 5-(4-chlorophenyl)-3-(2-oxo-2-(3-(trifluoromethyl)pyrrolidin-1-yl)ethyl)furo[2,3-d]pyrimidin-4(3H)-one] | 7 |
| C[Si](C)(C)CCOCn1cc(-c2ccc(F)c(Cl)c2)c2c(=O)n(CC(=O)N3CCC(F)C3)ccc21 (centres unmarked) [Example 206, 3-(3-chloro-4-fluorophenyl)-5-(2-(3-fluoropyrrolidin-1-yl)-2-oxoethyl)-1-((2-(trimethylsilyl)ethoxy)methyl)-1H-pyrrolo[3,2-c]pyridin-4(5H)-one] | 107 |
| C[Si](C)(C)CCOCn1cc(-c2ccc(F)c(Cl)c2)c2c(=O)n(CC(=O)N3CC(F)(F)C3)ccc21 [Example 207, 3-(3-chloro-4-fluorophenyl)-5-(2-(3,3-difluoroazetidin-1-yl)-2-oxoethyl)-1-((2-(trimethylsilyl)ethoxy)methyl)-1H-pyrrolo[3,2-c]pyndin-4(5H)-one] | 69 |
